IC50 data for eleven molecules are collected here from patent US20160122342A1, “ENHANCER OF ZESTE HOMOLOG 2 INHIBITORS” (GLAXOSMITHKLINE INTELLECTUAL PROPERTY (NO.2) LIMITED, priority 2013, published 2016).

A word on the IC50: it is the concentration at which inhibition is half-maximal. A higher IC50 goes with weaker potency.

The target of this test is T1, EZH2 within the PRC2 complex (Homo sapiens, UniProt Q15910).
T1 construct: FLAG; made in house; host or cells: Sf9 cells
T1 sequence (Q15910 whole entry): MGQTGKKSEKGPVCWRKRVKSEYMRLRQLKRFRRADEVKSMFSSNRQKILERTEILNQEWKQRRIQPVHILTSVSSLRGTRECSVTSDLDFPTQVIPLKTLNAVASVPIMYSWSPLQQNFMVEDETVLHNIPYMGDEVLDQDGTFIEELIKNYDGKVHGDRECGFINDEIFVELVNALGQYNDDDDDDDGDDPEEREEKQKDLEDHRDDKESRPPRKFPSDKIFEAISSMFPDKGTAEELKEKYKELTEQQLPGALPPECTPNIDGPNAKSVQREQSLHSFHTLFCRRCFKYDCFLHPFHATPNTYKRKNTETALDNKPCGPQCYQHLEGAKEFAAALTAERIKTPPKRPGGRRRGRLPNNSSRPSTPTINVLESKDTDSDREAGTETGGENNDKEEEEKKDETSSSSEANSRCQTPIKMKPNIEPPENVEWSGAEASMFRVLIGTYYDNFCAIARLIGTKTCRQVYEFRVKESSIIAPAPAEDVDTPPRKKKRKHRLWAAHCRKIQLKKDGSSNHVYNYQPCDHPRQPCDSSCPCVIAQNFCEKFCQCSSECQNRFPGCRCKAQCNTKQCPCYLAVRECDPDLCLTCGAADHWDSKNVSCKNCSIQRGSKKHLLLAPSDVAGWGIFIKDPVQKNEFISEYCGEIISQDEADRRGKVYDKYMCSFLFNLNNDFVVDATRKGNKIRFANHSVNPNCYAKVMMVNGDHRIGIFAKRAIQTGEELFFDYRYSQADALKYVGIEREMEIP
T1 sequence (O75530 whole entry partner): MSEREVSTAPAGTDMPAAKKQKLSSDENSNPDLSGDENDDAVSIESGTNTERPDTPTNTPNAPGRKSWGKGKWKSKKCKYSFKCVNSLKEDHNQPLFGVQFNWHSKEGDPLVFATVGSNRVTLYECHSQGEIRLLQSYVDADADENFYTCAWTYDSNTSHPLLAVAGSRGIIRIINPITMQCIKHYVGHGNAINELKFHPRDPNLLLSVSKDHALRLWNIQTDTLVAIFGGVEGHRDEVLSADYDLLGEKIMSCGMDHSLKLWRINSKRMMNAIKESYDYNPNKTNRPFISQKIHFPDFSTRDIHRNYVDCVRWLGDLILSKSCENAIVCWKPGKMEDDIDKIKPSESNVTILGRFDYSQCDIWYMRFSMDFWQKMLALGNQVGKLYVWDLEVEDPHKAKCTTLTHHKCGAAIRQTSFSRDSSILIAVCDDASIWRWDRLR
T1 sequence (Q15022 whole entry partner): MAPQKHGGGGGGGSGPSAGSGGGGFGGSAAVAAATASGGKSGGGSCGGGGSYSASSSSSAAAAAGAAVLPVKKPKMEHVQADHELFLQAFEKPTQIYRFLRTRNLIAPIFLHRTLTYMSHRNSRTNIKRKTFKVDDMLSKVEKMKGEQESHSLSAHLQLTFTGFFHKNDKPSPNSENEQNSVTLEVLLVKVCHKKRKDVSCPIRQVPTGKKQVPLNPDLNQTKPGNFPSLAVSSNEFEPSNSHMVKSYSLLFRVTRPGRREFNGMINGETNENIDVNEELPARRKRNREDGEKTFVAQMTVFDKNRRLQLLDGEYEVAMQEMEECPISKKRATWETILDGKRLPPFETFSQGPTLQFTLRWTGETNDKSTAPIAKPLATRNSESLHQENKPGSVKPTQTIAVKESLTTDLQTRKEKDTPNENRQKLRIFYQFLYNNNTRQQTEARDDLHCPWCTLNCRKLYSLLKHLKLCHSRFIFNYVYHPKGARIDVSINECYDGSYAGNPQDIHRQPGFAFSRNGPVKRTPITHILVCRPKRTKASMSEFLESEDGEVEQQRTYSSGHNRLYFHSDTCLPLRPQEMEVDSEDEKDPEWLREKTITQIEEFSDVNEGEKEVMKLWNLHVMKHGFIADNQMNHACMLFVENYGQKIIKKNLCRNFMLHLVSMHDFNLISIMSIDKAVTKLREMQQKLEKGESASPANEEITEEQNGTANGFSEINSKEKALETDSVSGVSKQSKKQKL
T1 sequence (Q09028 whole entry partner): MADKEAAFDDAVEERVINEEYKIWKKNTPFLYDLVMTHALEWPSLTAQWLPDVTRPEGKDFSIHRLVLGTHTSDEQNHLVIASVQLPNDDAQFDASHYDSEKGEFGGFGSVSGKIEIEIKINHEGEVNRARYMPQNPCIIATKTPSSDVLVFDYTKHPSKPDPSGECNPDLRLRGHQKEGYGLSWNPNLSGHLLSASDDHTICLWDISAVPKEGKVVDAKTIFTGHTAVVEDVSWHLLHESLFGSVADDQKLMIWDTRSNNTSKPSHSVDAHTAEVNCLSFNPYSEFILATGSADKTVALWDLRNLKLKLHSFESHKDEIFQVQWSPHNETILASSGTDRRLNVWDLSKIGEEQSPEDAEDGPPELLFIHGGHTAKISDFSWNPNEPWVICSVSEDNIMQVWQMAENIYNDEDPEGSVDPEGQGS
T1 sequence (Q6ZN18 whole entry partner): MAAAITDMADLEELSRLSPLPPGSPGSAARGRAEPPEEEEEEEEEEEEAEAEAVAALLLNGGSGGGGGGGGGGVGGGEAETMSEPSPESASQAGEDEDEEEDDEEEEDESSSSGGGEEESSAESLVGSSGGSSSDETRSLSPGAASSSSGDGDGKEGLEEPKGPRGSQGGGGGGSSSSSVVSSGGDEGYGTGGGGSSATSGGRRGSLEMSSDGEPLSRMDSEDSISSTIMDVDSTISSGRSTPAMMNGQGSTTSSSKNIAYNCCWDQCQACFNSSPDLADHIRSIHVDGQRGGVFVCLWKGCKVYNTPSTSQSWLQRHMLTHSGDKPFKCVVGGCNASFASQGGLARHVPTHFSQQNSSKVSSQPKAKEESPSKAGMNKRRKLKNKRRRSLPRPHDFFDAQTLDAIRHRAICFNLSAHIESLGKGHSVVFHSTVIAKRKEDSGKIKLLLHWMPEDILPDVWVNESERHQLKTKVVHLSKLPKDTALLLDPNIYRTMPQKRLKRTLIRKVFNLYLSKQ
Kind of test: Assay Protocol 2: EZH2 methyltransferase scintillation proximity assay, biotinylated histone H3 peptide substrate. It counts as biochemical. As to conditions: SPA, 3H-SAM, biotinylated unmethylated histone H3K27 peptide substrate, 5-member PRC2 complex. As for the experimental part:
Compounds contained herein were evaluated for their ability to inhibit the methyltransferase activity of EZH2 within the PRC2 complex. […] The peptides were captured on streptavidin-coated SPA beads and the resulting signal was read on a ViewLux plate reader. • 4. Prepare 10 mM stock of compounds from solid in 100% DMSO. • 5. […] Dispense 10 nL of compound from the dilution plate into reaction plates (Corning, 384-well polystyrene NBS, Cat#3673). Prepare the following solutions: • 7. 1× Base Buffer, 50 mM Tris-HCl, pH 8, 2 mM MgCl2: Per 1 L of base buffer, combine 1 M Tris-HCl, pH 8 (50 mL), 1 M MgCl2 (2 mL), and distilled water (948 mL). • 8. 1× Assay Buffer: Per 10 mL of 1× Assay Buffer, combine 1× Base Buffer (9.96 mL), 1 M DTT (40 uL), and 10% Tween-20 (1 uL) to provide a final concentration of 50 mM Tris-HCl, pH 8, 2 mM MgCl2, 4 mM DTT, 0.001% Tween-20. • 9. 2× Enzyme Solution: […] SPA Bead Solution: Per 1 mL of SPA Bead Solution, combine Streptavidin coated SPA beads (PerkinElmer, Cat# RPNQ0261, 40 mg) and 1× Assay Buffer (1 mL) to provide a working concentration of 40 mg/mL. • 11. 2× Substrate Solution: Per 10 mL of 2× Substrate Solution, combine 40 mg/mL SPA Bead Solution (375 uL), 1 mM biotinylated histone H3K27 peptide (200 uL), 12.5 uM 3H-SAM (240 uL; 1 mCi/mL), 1 mM cold SAM (57 uL), and 1× Assay Buffer (9.13 mL) to provide a final concentration of 0.75 mg/mL SPA Bead Solution, 10 uM biotinylated histone H3K27 peptide, 0.15 uM 3H-SAM (˜12 uCi/mL 3H-SAM), and 2.85 uM cold SAM. • 12. 2.67× Quench Solution: Per 10 mL of 2.67× Quench Solution, combine 1× Assay Buffer (9.73 mL) and 10 mM cold SAM (267 uL) to provide a final concentration of 100 uM cold SAM. • 3. […] Dispense 5 uL/well of 1× Assay Buffer to column 18 (low control reactions). • 11. Dispense 5 uL/well of 2× Substrate Solution to columns 1-24 (note: substrate solution should be mixed to ensure homogeneous bead suspension before dispensing into matrix reservoir). • 12. Dispense 5 uL/well of 2× Enzyme Solution to columns 1-17, 19-24. • 13. Incubate the reaction for 60 min at room temperature. • 5. Dispense 6 uL/well of the 2.67× Quench Solution to columns 1-24. • 6. Seal assay plates and spin for ˜1 min at 500 rpm. • 7. Dark adapt plates in the ViewLux instrument for 15-60 min. • 2. Read the assay plates on the Viewlux Plate Reader utilizing the 613 nm emission filter or clear filter (300 s exposure). Reagent addition can be done manually or with automated liquid handler. Percent inhibition was calculated relative to the DMSO control for each compound concentration and the resulting values were fit using standard IC50 fitting parameters within the ABASE data fitting software package.
Background: In a scintillation proximity assay essentially only radioactivity close to the scintillant gives light.
`CCN1CCC(N(CC)c2cccc3c2C/C=C/CCc2cc(C)[nH]c(=O)c2CNC3=O)CC1` [Example 44, (E)-10-(ethyl(1-ethylpiperidin-4-yl)amino)-3-methyl-5,6,15,16-tetrahydrobenzo[c]pyrido[4,3-j][1]azacyclododecine-1,14(2H,9H)-dione] returned an IC50 of 79 nM. That is a double-digit nanomolar value. `CCN(c1cccc2c1C/C=C/CCc1cc(C)[nH]c(=O)c1CNC2=O)C1CCN(Cc2ccn(C)n2)CC1` [Example 45] came in with an IC50 of 50 nM. As to `CCOC(=O)C(C)(C)N1CCC(N(CC)c2cccc3c2C/C=C/CCc2cc(C)[nH]c(=O)c2CNC3=O)CC1` [Example 46, (E)-ethyl 2-(4-(ethyl(3-methyl-1,14-dioxo-1,2,5,6,9,14,15,16-octahydrobenzo[c]pyrido[4,3-j][1]azacyclododecin-10-yl)amino)piperidin-1-yl)-2-methylpropanoate], 251 nM corresponded to half-maximal inhibition (IC50). In turn, `CCN(c1cccc2c1C/C=C/CCc1cc(C)[nH]c(=O)c1CNC2=O)C1CCN(CC(F)(F)F)CC1` [Example 47, (E)-10-(ethyl(1-(2,2,2-trifluoroethyl)piperidin-4-yl)amino)-3-methyl-5,6,15,16-tetrahydrobenzo[c]pyrido[4,3-j][1]azacyclododecine-1,14(2H,9H)-dione] came in with an IC50 of 200 nM. This IC50 and that of the molecule before are within 1.5-fold of each other. In the case of `CCN(c1cccc2c1C/C=C/CCc1cc(C)[nH]c(=O)c1CNC2=O)C1CCN(Cc2cccc(C)n2)CC1` [Example 48, (E)-10-(ethyl(1-((6-methylpyridin-2-yl)methyl)piperidin-4-yl)amino)-3-methyl-5,6,15,16-tetrahydrobenzo[c]pyrido[4,3-j][1]azacyclododecine-1,14(2H,9H)-dione], the IC50 amounted to 316 nM.

With `CCN(CC)[C@H]1CC[C@H](N(CC)c2cccc3c2C/C=C/CCc2cc(C)[nH]c(=O)c2CNC3=O)CC1` [Example 49, (E)-10-((trans-4-(diethylamino)cyclohexyl)(ethyl)amino)-3-methyl-5,6,15,16-tetrahydrobenzo[c]pyrido[4,3-j][1]azacyclododecine-1,14(2H,9H)-dione], the IC50 is 158 nM. The molecule `CCN(c1cccc2c1C/C=C/CCc1cc(C)[nH]c(=O)c1CNC2=O)[C@H]1CC[C@H](N2CCOCC2)CC1` [Example 50, (E)-10-(ethyl(trans-4-morpholinocyclohexyl)amino)-3-methyl-5,6,15,16-tetrahydrobenzo[c]pyrido[4,3-j][1]azacyclododecine-1,14(2H,9H)-dione] returned an IC50 of 126 nM. This IC50 and that of the molecule before are within 1.5-fold of each other. Regarding `CCN(c1cccc2c1C/C=C/CCCc1cc(C)[nH]c(=O)c1CNC2=O)[C@H]1CC[C@H](N(C)C)CC1` [Example 53, (E)-11-((trans-4-(dimethylamino)cyclohexyl)(ethyl)amino)-3-methyl-5,6,7,10,16,17-hexahydro-1H-benzo[c]pyrido[4,3-k][1]azacyclotridecine-1,15(2H)-dione], the IC50 is 79 nM. `CCN(c1cccc2c1C/C=C/CCc1cc(C)[nH]c(=O)c1CNC2=O)[C@H]1CC[C@@H](N(C)C)CC1` [Example 55, (E)-10-((cis-4-(dimethylamino)cyclohexyl)(ethyl)amino)-3-methyl-5,6,15,16-tetrahydrobenzo[c]pyrido[4,3-j][1]azacyclododecine-1,14(2H,9H)-dione] registered an IC50 of 251 nM. In turn, `CCN(c1cccc2c1C/C=C/CCc1cc(C)[nH]c(=O)c1CNC2=O)[C@H]1CC[C@H](NCC(F)F)CC1` [Example 56, (E)-10-((trans-4-((2,2-difluoroethyl)amino)cyclohexyl)(ethyl)amino)-3-methyl-5,6,15,16-tetrahydrobenzo[c]pyrido[4,3-j][1]azacyclododecine-1,14(2H,9H)-dione] showed an IC50 of 126 nM. As for `CCN(c1cccc2c1C/C=C/CCc1cc(C)[nH]c(=O)c1CNC2=O)[C@H]1CC[C@H](N(C)CC(F)F)CC1` [Example 57, (E)-10-((trans-4-((2,2-difluoroethyl)(methyl)amino)cyclohexyl)(ethyl)amino)-3-methyl-5,6,15,16-tetrahydrobenzo[c]pyrido[4,3-j][1]azacyclododecine-1,14(2H,9H)-dione], the figure is 100 nM.
